From US20060004087A1, “Tetracyclic compounds as estrogen ligands” (Wyeth, priority 2004, published 2006) come the findings set out here.

Broadly, the IC50 is the concentration needed to halve the response being measured. Low values mean inhibition by little substance, high ones a need for much substance. In general, melting point refers to the temperature of the solid-liquid transition.

The target in one data set is T1, human ERβ (Homo sapiens, UniProt Q92731).
T1 construct: made in house; host or cells: E. coli (crude lysate)
Description: Competition with [3H]-17β-estradiol for ERβ ligand binding domain. The settings on record: E. coli lysate expressing ER ligand binding domains (D, E, & F); 2 nM [3H]-17β-estradiol; 5-15 hours at room temperature. The method, then:
(§1) This test procedure provides the methodology for one to determine whether a particular compound binds to the ER (and is therefore, “estrogenic”) and whether there is selectivity for ERα or ERβ. […] The procedure used is described briefly below. A crude lysate of E. coli expressing the ER ligand binding domains (D, E, & F) of human ERα or ERβ was prepared. Both ERs and compounds were diluted in 1× Dulbecco's Phosphate Buffered Saline (DPBS) supplemented with 1 mM EDTA. […] After between 5 and 15 hours at room temperature, the plates were washed with DPBS/1 mM EDTA and bound radioactivity determined by liquid scintillation counting.

The target in a further data set is T2, human ERα (Homo sapiens, UniProt P03372).
T2 construct: made in house; host or cells: E. coli (crude lysate)
T2 sequence (P03372 311-547 limits assumed): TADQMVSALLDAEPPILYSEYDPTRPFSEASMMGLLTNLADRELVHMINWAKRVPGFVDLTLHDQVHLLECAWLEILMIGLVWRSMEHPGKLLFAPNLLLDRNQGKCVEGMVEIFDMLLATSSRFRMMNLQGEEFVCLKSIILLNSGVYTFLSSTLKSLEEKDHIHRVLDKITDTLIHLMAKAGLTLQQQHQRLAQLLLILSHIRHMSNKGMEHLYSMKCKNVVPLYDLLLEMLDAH
Description: Competition with [3H]-17β-estradiol for ERα ligand binding domain. Conditions: E. coli lysate expressing ER ligand binding domains (D, E, & F); 2 nM [3H]-17β-estradiol; 5-15 hours at room temperature. The method, then: as §1

T1 sequence (Q92731 264-498 limits assumed): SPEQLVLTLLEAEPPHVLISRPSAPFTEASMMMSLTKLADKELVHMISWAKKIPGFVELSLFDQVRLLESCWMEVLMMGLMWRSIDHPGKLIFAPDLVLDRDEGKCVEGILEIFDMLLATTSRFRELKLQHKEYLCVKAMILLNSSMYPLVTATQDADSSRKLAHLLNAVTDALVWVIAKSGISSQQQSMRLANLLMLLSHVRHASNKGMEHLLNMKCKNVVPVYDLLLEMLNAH

Compound `N#Cc1c(O)ccc2c1oc1c3ccc(O)cc3ccc21` [Example 7, 3,9-DIHYDROXY-BENZO[B]NAPHTHO[2,1-D]FURAN-10-CARBONITRILE] had a melting point above 300 °C. The IC50 on human ERβ turned out to be 3 nM. Besides, the IC50 at human ERα is 55 nM.

For `N#Cc1cc(O)cc2c3c(oc12)-c1ccc(O)cc1CC3` [Example 4, 3,8-DIHYDROXY-5,6-DIHYDRO-BENZO[B]NAPHTHO[2,1-D]FURAN-10-CARBONITRILE], the melting point was 355 to 358 °C. For the same compound, the IC50 on human ERβ came out at 1.2 nM. Besides, the IC50 on human ERα is 150 nM.

Turning to `N#Cc1cc(O)cc2c3c(oc12)-c1ccc(O)cc1CCC3` [Example 5, 3,9-DIHYDROXY-6,7-DIHYDRO-5H-12-OXA-DIBENZO[A,E]AZULEN-11-CARBONITRILE], the half-inhibitory concentration (IC50) came out at 17 nM on human ERβ and 1500 nM on human ERα.

The compound `N#Cc1c(O)ccc2c3c(oc12)-c1ccc(O)cc1CC3` [Example 6, 3,9-DIHYDROXY-5,6-DIHYDRO-BENZO[B]NAPHTHO[2,1-D]FURAN-10-CARBONITRILE] yielded a melting point above 300 °C. This compound showed a half-inhibitory concentration (IC50) on human ERβ of 5 nM. Also, the half-maximal inhibitory concentration (IC50) on human ERα is 82 nM.

In the case of `Oc1ccc2c(c1)OCc1c-2oc2c(Br)cc(O)cc12` [Example 11, 10-BROMO-6H-BENZO[4,5]FURO[3,2-C]CHROMENE-3,8-DIOL], the figures for the IC50 on human ERβ and at human ERα were 1 nM and 42 nM, respectively.

For the compound `Oc1ccc2c(ccc3c4ccc(O)cc4oc23)c1` [Example 2, BENZO[B]NAPHTHO[2,1-D]FURAN-3,9-DIOL], the half-maximal inhibitory concentration (IC50) at human ERβ turned out to be 1 nM; at human ERα, 12 nM.

As to “2,9-DIHYDROXY-5,6-DIHYDRO-BENZO[B]NAPHTHO[2,1-D]FURAN-10-BENZONITRILE [Example 12]”, the figures for the IC50 at human ERβ and on human ERα were 757 nM and 2790 nM, respectively.

Compound `N#Cc1c(O)ccc2c1oc1c3cc(O)ccc3ccc21` [Example 13, 2,9-DIHYDROXY-BENZO[B]NAPHTHO[2,1-D]FURAN-10-CARBONITRILE] registered a melting point of 291 to 295 °C.

Turning to `Oc1ccc2c(c1)oc1c3ccc(O)cc3c(Br)cc21` [Example 3, 5-BROMO-BENZO[B]NAPHTHO[2,1-D]FURAN-3,9-DIOL], the IC50 at human ERβ turned out to be 12 nM; at human ERα, 70 nM.

For the compound `Oc1ccc2c(c1)OCc1c-2oc2ccc(O)cc12` [Example 9, 6H-BENZO[4,5]FURO[3,2-C]CHROMEN-3,8-DIOL], the IC50 worked out at 4 nM on human ERβ and 129 nM at human ERα.

In the case of `N#Cc1cc(O)cc2c3c(oc12)-c1ccc(O)cc1OC3` [Example 10, 3,8-DIHYDROXY-6H-BENZO[4,5]FURO[3,2-C]CHROMENE-10-CARBONITRILE], the half-inhibitory concentration (IC50) turned out to be 2 nM at human ERβ and 159 nM at human ERα.

Consider `Oc1ccc2c(c1)CCc1c-2oc2cc(O)ccc12` [Example 1, 5,6-DIHYDRO-BENZO[B]NAPHTHO[2,1-D]FURAN-3,9-DIOL], for which the concentration for half-maximal inhibition (IC50) at human ERβ came out at 3 nM; on human ERα, 18 nM.
